# Data published in PubChem BioAssay (NCI).
#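 Five compound concentrations were applied to cells in 96-well plates for 48 hours; endpoints were derived by simple linear interpolation of the resulting dose-response curve. Definition used: TGI = concentration required for complete inhibition of growth.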
# Experiments:
# Assay in all cases: NCI tumour cell line growth inhibition, 48 h
# [1] = tested on: SF-539 CNS
# [2] = tested on: M14 melanoma
# [3] = tested on: A549 NSCLC
# [4] = tested on: HOP-62 NSCLC
# [5] = tested on: SNB-19 CNS
# [6] = tested on: SK-MEL-5 melanoma
# [7] = tested on: UACC-62 melanoma
# [8] = tested on: ACHN renal
# [9] = tested on: CCRF-CEM leukemia
# [10] = tested on: OVCAR-4 ovarian
# [11] = tested on: MDA-MB-435
# [12] = tested on: MDA-MB-231 breast
# [13] = tested on: HOP-92 NSCLC
# [14] = tested on: KM12 colon
# [15] = tested on: CAKI-1 renal
# [16] = tested on: K-562 leukemia
# [17] = tested on: SF-295 CNS
# [18] = tested on: U251 CNS
# [19] = tested on: COLO 205 colon
# [20] = tested on: SN12C renal
# [21] = tested on: UACC-257 melanoma
# [22] = tested on: NCI-H23 lung
# [23] = tested on: SF-268 CNS
# [24] = tested on: NCI-H460 lung
# [25] = tested on: HT29 colon
# [26] = tested on: SW-620 colon
# [27] = tested on: DU-145 prostate
# [28] = tested on: NCI-H522 lung
# [29] = tested on: HCT-116 colon
# [30] = tested on: HL-60(TB) leukemia
# [31] = tested on: SK-MEL-2 melanoma
# [32] = tested on: PC-3 prostate
# [33] = tested on: MOLT-4 leukemia
# [34] = tested on: HCT-15 colon
# [35] = tested on: UO-31 renal
# [36] = tested on: T-47D breast
# [37] = tested on: SK-OV-3 ovarian
# [38] = tested on: LOX IMVI melanoma
# [39] = tested on: BT-549 breast
# [40] = tested on: TK-10 renal
# [41] = tested on: A498 renal
# [42] = tested on: SR leukemia
# [43] = tested on: MCF7 breast
# [44] = tested on: OVCAR-8 ovarian
# [45] = tested on: HCC-2998 colon
# [46] = tested on: NCI-H226 lung
# [47] = tested on: MALME-3M melanoma
# [48] = tested on: EKVX NSCLC
# [49] = tested on: NCI/ADR-RES ovarian
# [50] = tested on: 786-0 renal
# [51] = tested on: SK-MEL-28 melanoma
# [52] = tested on: SNB-75 CNS
# [53] = tested on: RXF 393 renal
# [54] = tested on: MDA-N
# [55] = tested on: OVCAR-3 ovarian
# [56] = tested on: IGROV1 ovarian
# [57] = tested on: OVCAR-5 ovarian
# [58] = tested on: RPMI-8226 leukemia
structure (smiles),measurement,setting,value
OCCOCCO/N=C1\C(c2c(O)[nH]c3ccccc23)=Nc2ccccc21,TGI,[1],11.5 µM
same,TGI,[2],> 100 µM
same,TGI,[3],17.1 µM
same,TGI,[4],27.6 µM
same,TGI,[5],33.7 µM
same,TGI,[6],6 µM
same,TGI,[7],6.99 µM
same,TGI,[8],10.3 µM
same,TGI,[9],> 100 µM
same,TGI,[10],43.1 µM
same,TGI,[11],27.8 µM
same,TGI,[12],29.9 µM
same,TGI,[13],69.6 µM
same,TGI,[14],14.1 µM
same,TGI,[15],10.8 µM
same,TGI,[16],> 100 µM
same,TGI,[17],10.2 µM
same,TGI,[18],16.8 µM
same,TGI,[19],3.38 µM
same,TGI,[20],17.9 µM
same,TGI,[21],> 73.1 µM
same,TGI,[22],29.3 µM
same,TGI,[23],17.8 µM
same,TGI,[24],15.3 µM
same,TGI,[25],7.11 µM
same,TGI,[26],> 100 µM
same,TGI,[27],22.8 µM
same,TGI,[28],17 µM
same,TGI,[29],3.95 µM
same,TGI,[30],39.3 µM
same,TGI,[31],13.7 µM
same,TGI,[32],18.1 µM
same,TGI,[33],> 100 µM
same,TGI,[34],> 52.4 µM
same,TGI,[35],6.48 µM
same,TGI,[36],> 44.6 µM
same,TGI,[37],3.27 µM
same,TGI,[38],11.6 µM
same,TGI,[39],18.3 µM
same,TGI,[40],20.9 µM
same,TGI,[41],0.839 µM
same,TGI,[42],> 100 µM
same,TGI,[43],9.73 µM
same,TGI,[44],27.9 µM
same,TGI,[45],11.6 µM
same,TGI,[46],10.3 µM
same,TGI,[47],17.5 µM
same,TGI,[48],18.2 µM
same,TGI,[49],> 49.2 µM
same,TGI,[50],12.1 µM
same,TGI,[51],> 85.2 µM
same,TGI,[52],13.8 µM
same,TGI,[53],6.42 µM
same,TGI,[54],26.7 µM
same,TGI,[55],10.2 µM
same,TGI,[56],5.35 µM
same,TGI,[57],20.5 µM
same,TGI,[58],> 33.2 µM
Oc1ccc(-c2nc3ccc(F)cc3s2)cc1,TGI,[1],34 µM
same,TGI,[2],37.3 µM
same,TGI,[3],43.1 µM
same,TGI,[5],51.2 µM
same,TGI,[6],38 µM
same,TGI,[7],34.8 µM
same,TGI,[8],38.6 µM
same,TGI,[10],58.1 µM
same,TGI,[11],41.5 µM
same,TGI,[12],49 µM
same,TGI,[14],33.8 µM
same,TGI,[15],37 µM
same,TGI,[16],> 100 µM
same,TGI,[17],33.9 µM
same,TGI,[18],39.9 µM
same,TGI,[19],29.9 µM
same,TGI,[20],40.9 µM
same,TGI,[21],37.2 µM
same,TGI,[22],48.3 µM
same,TGI,[23],58.9 µM
same,TGI,[24],59 µM
same,TGI,[25],31.3 µM
same,TGI,[26],> 100 µM
same,TGI,[27],30.3 µM
same,TGI,[28],26.9 µM
same,TGI,[29],32.9 µM
same,TGI,[30],51.8 µM
same,TGI,[31],34.9 µM
same,TGI,[32],44.5 µM
same,TGI,[33],> 100 µM
same,TGI,[34],35 µM
same,TGI,[35],30.1 µM
same,TGI,[36],36 µM
same,TGI,[37],42.8 µM
same,TGI,[38],39.7 µM
same,TGI,[39],37.4 µM
same,TGI,[40],34.1 µM
same,TGI,[42],53.4 µM
same,TGI,[43],59.1 µM
same,TGI,[44],39.9 µM
same,TGI,[46],44.5 µM
same,TGI,[47],38.5 µM
same,TGI,[48],25.4 µM
same,TGI,[49],52.8 µM
same,TGI,[50],36 µM
same,TGI,[53],68.2 µM
same,TGI,[54],70.6 µM
same,TGI,[55],90.9 µM
same,TGI,[56],34.6 µM
same,TGI,[57],44.7 µM
same,TGI,[58],63.9 µM
